{
  "source": "ChEMBL document CHEMBL2203092",
  "about": "“Clerodane diterpenoids from Croton crassifolius” (J Nat Prod, 2012)",
  "data": [
    {"tested_on": "Human alphaherpesvirus 1", "experiment": "Antiviral activity against HSV1 F ATCC VR733 infected in african green monkey Vero cells assessed as reduction of virus-induced cytopathic effect after 3 days", "type": "functional, organism-based", "details": "Human alphaherpesvirus 1, Strain F ATCC VR 733, Vero, 72 h", "units": {"IC50": "µg/mL"}, "values": [
      {"smiles": "C[C@@H]1CC(=O)[C@@H]2[C@@H](C(=O)O)CCC[C@H]2[C@@]12C[C@@H](c1ccoc1)OC2=O", "IC50": 25},
      {"smiles": "Nc1nc2c(ncn2COCCO)c(=O)[nH]1", "note": "[ACYCLOVIR]", "IC50": 0.2},
      {"smiles": "COC(=O)[C@@]1(C)CC(=O)C=C2C1=CC[C@@H](C)[C@]2(C)CC(=O)c1ccoc1", "note": "[CRASSIFOLIN C]", "IC50": 50},
      {"smiles": "COC(=O)[C@]12CCCC3=C1[C@@H](C[C@H](C)[C@@]31C[C@H](c3ccoc3)OC1=O)OC2", "note": "[CRASSIFOLIN D]", "IC50": 50},
      {"smiles": "COC(=O)[C@@]1(C)C2=C(CC[C@H]1OC(C)=O)[C@@]1(C[C@@H](c3ccoc3)OC1=O)[C@H](C)CC2", "note": "[CRASSIFOLIN F]", "IC50": 50},
      {"smiles": "COC(=O)[C@]1(C)CCCC2=C1CC[C@@H](C)[C@]21C[C@@H](c2ccoc2)OC1=O", "note": "[PENDULIFLAWOROSIN]", "IC50": 50}
    ]}
  ]
}
